Among the test systems are RXF 393 renal; CAKI-1 renal; K-562 leukemia; MCF7 breast; SK-MEL-2 melanoma; SNB-19 CNS; HOP-62 NSCLC; NCI/ADR-RES ovarian; UO-31 renal; HL-60(TB) leukemia; SF-539 CNS; OVCAR-4 ovarian; MDA-MB-231 breast; KM12 colon.
Holding throughout (test): inhibition of tumour cell growth, NCI panel, 48 h

Structures are written as SMILES.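 Step 1: Grow cells in 96-well plates. Step 2: Expose to compound for 48 hours at 5 concentrations. Step 3: Interpolate endpoints linearly; if unreached, use highest concentration. Here, GI50 denotes the concentration required for 50% inhibition of growth. Definition used: TGI = concentration required for complete inhibition of growth.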 Bounds are passed on as bounds.

As for `CCOc1cc(-c2nc3ccccn3c2/N=C/c2cc([N+](=O)[O-])cc([N+](=O)[O-])c2O)ccc1O`, the TGI in the assay with RXF 393 renal, in the assay on CAKI-1 renal, with K-562 leukemia, in the assay on MCF7 breast, in the assay on SK-MEL-2 melanoma and with SNB-19 CNS was greater than 100 µM each time. Besides, the TGI in the assay with HOP-62 NSCLC, with NCI/ADR-RES ovarian, in the assay with UO-31 renal, with HL-60(TB) leukemia, in the assay with SF-539 CNS and with OVCAR-4 ovarian was greater than 100 µM each time. Further, the TGI in the assay with MDA-MB-231 breast and in the assay on KM12 colon was greater than 100 µM in each case.

Consider `CCSc1c(C)c2c(n(Cc3ccc(OC)cc3)c1=O)Cc1ccccc1C2`, for which the TGI in the assay with RXF 393 renal was greater than 100 µM; in the assay on CAKI-1 renal, greater than 100 µM; in the assay on K-562 leukemia it was 60.9 µM; with MCF7 breast, greater than 100 µM; in the assay with SK-MEL-2 melanoma, 66 µM; in the assay with SNB-19 CNS it was greater than 100 µM. The TGI in the assay on HOP-62 NSCLC was greater than 100 µM; in the assay with NCI/ADR-RES ovarian, 74.5 µM; in the assay with UO-31 renal it was greater than 100 µM; in the assay with HL-60(TB) leukemia it was 31.6 µM; in the assay with SF-539 CNS it was 80.1 µM; with OVCAR-4 ovarian, greater than 100 µM. The figures for the TGI in the assay with MDA-MB-231 breast and in the assay with KM12 colon were 94.7 µM and greater than 100 µM, respectively.

Regarding `FC(F)(F)c1nc2ccc(SSc3ccc4nc(C(F)(F)F)[nH]c4c3)cc2[nH]1`, the GI50 with RXF 393 renal, in the assay on CAKI-1 renal, with SK-MEL-2 melanoma, in the assay on SNB-19 CNS, with NCI/ADR-RES ovarian and in the assay on KM12 colon was greater than 100 µM each time. Moreover, the TGI in the assay on RXF 393 renal, with CAKI-1 renal, in the assay with K-562 leukemia, in the assay on MCF7 breast, in the assay on SK-MEL-2 melanoma and with SNB-19 CNS was greater than 100 µM throughout. The TGI in the assay with HOP-62 NSCLC, with NCI/ADR-RES ovarian, in the assay on UO-31 renal, in the assay with HL-60(TB) leukemia, in the assay on SF-539 CNS and with OVCAR-4 ovarian was greater than 100 µM throughout. Besides, the TGI with MDA-MB-231 breast was 71.3 µM; with KM12 colon, greater than 100 µM.

With `CCC(C)C(C(=O)N/N=C1/SCC(=O)N1C)C(=O)N/N=C1/SCC(=O)N1C` (stereo not drawn), the TGI in the assay on RXF 393 renal, with CAKI-1 renal, in the assay on K-562 leukemia, in the assay with MCF7 breast, in the assay with SK-MEL-2 melanoma and in the assay with SNB-19 CNS was greater than 100 µM throughout. Moreover, the TGI in the assay on HOP-62 NSCLC is greater than 100 µM; in the assay on NCI/ADR-RES ovarian, greater than 100 µM; in the assay with UO-31 renal it was greater than 100 µM; in the assay on HL-60(TB) leukemia it was 7.65 µM; in the assay with SF-539 CNS, greater than 100 µM; in the assay with OVCAR-4 ovarian, greater than 100 µM. The TGI with MDA-MB-231 breast and in the assay with KM12 colon was greater than 100 µM throughout.

Take `C[n+]1noc(/N=N\[O-])c1-c1cc(-c2c(/N=N\[O-])on[n+]2C)cc(-c2c(/N=N/[O-])on[n+]2C)c1`: the TGI in the assay with RXF 393 renal, in the assay with CAKI-1 renal, in the assay on K-562 leukemia, in the assay with MCF7 breast, in the assay with SK-MEL-2 melanoma and in the assay with SNB-19 CNS was greater than 100 µM in each case. The TGI with HOP-62 NSCLC, in the assay on NCI/ADR-RES ovarian, with UO-31 renal, in the assay on HL-60(TB) leukemia, with SF-539 CNS and in the assay on OVCAR-4 ovarian was greater than 100 µM throughout. In addition, the TGI with MDA-MB-231 breast and with KM12 colon was greater than 100 µM each time.

On to `CC(=O)NC1=C(C)C(=O)c2c(nc3n2CCC3OC(=O)c2ccccc2)C1=N` (stereo not drawn), for which the TGI in the assay on RXF 393 renal was found to be 2.9 µM; in the assay with CAKI-1 renal it was 4 µM; with K-562 leukemia it was 5.65 µM; in the assay on MCF7 breast it was 2.53 µM; in the assay on SK-MEL-2 melanoma it was 4.18 µM; with SNB-19 CNS, 11.7 µM. Besides, the TGI in the assay on HOP-62 NSCLC stood at 7.28 µM; with NCI/ADR-RES ovarian, 8.52 µM; with UO-31 renal, 4.34 µM; in the assay with HL-60(TB) leukemia, 3.74 µM; in the assay on SF-539 CNS, 2.56 µM; in the assay with OVCAR-4 ovarian it was 1.2 µM. For the same compound, the values for the TGI in the assay on MDA-MB-231 breast and with KM12 colon were 6.45 µM and 11.6 µM, respectively.

For `COC(=O)Nc1nc2ccc(Oc3ccc4nc(NC(=O)OC)[nH]c4c3)cc2[nH]1`, the TGI was greater than 22.8 µM in the assay with RXF 393 renal; greater than 100 µM with CAKI-1 renal; greater than 45.2 µM with K-562 leukemia; greater than 100 µM in the assay with MCF7 breast; greater than 100 µM in the assay with SK-MEL-2 melanoma; greater than 100 µM in the assay on SNB-19 CNS. The TGI in the assay with HOP-62 NSCLC was 45.6 µM; in the assay with NCI/ADR-RES ovarian it was greater than 100 µM; in the assay on UO-31 renal it was greater than 100 µM; with HL-60(TB) leukemia, 1.96 µM; in the assay with SF-539 CNS it was 1.69 µM; in the assay with OVCAR-4 ovarian, greater than 100 µM. In addition, the TGI with MDA-MB-231 breast was 11 µM; in the assay with KM12 colon, greater than 62.5 µM.

In the case of `Clc1cc(OCc2nn3c(Cc4ccccc4)nnc3s2)ccc1OCc1nn2c(Cc3ccccc3)nnc2s1`, the TGI in the assay with RXF 393 renal was greater than 100 µM; with CAKI-1 renal, 99.6 µM; in the assay on K-562 leukemia, greater than 100 µM; in the assay on MCF7 breast it was greater than 100 µM; with SK-MEL-2 melanoma, greater than 100 µM; in the assay on SNB-19 CNS, 82.7 µM. The TGI with HOP-62 NSCLC is greater than 100 µM; in the assay with NCI/ADR-RES ovarian, greater than 100 µM; in the assay on UO-31 renal it was greater than 100 µM; in the assay with HL-60(TB) leukemia, greater than 100 µM; with SF-539 CNS, greater than 100 µM; in the assay on OVCAR-4 ovarian, 59.3 µM. Also, the TGI with MDA-MB-231 breast is 66.8 µM; in the assay with KM12 colon, greater than 100 µM.

On to `C#CCn1c(=O)ccn(/C(=C\C(=O)OCC)C(=O)OCC)c1=O`, for which the TGI in the assay on RXF 393 renal was 4.84 µM; in the assay on CAKI-1 renal it was 2.4 µM; with K-562 leukemia it was greater than 100 µM; with MCF7 breast it was 9.78 µM; in the assay with SK-MEL-2 melanoma, 32.5 µM; in the assay with SNB-19 CNS it was 36.4 µM. Further, the TGI was greater than 54.4 µM in the assay on HOP-62 NSCLC; 33.3 µM in the assay on NCI/ADR-RES ovarian; 26.4 µM in the assay with UO-31 renal; greater than 100 µM in the assay with HL-60(TB) leukemia; 4.64 µM in the assay with SF-539 CNS; 7.3 µM in the assay on OVCAR-4 ovarian. Moreover, the TGI in the assay on MDA-MB-231 breast stood at 41.9 µM; with KM12 colon it was 48.8 µM.

As to `CC1=NN(c2nc(N)nc(/C(C#N)=C/c3ccc([N+](=O)[O-])o3)n2)C(C)(C)C1`, the TGI in the assay on RXF 393 renal came out at 3.21 µM; in the assay with CAKI-1 renal, 3.81 µM; in the assay with K-562 leukemia, 1.13 µM; in the assay with MCF7 breast, 3.21 µM; in the assay on SK-MEL-2 melanoma it was 16.7 µM; with SNB-19 CNS, 29.7 µM. The TGI in the assay on HOP-62 NSCLC was 31.3 µM; with NCI/ADR-RES ovarian, greater than 49.9 µM; in the assay on UO-31 renal, 31.8 µM; in the assay with HL-60(TB) leukemia, 6.32 µM; with SF-539 CNS, 12 µM; in the assay on OVCAR-4 ovarian, 25.7 µM. The figures for the TGI in the assay on MDA-MB-231 breast and in the assay with KM12 colon were 3.29 µM and 28.1 µM, respectively.

With `Nc1nc(N)c(C2=CCN(Cc3ccccc3)CC2)c(=O)[nH]1`, the TGI with RXF 393 renal, in the assay on CAKI-1 renal, in the assay on K-562 leukemia, with MCF7 breast, in the assay on SK-MEL-2 melanoma and with SNB-19 CNS was greater than 100 µM in each case. In addition, the TGI with HOP-62 NSCLC, in the assay with NCI/ADR-RES ovarian, in the assay with UO-31 renal, in the assay on HL-60(TB) leukemia, with SF-539 CNS and in the assay with OVCAR-4 ovarian was greater than 100 µM throughout. The TGI in the assay with MDA-MB-231 breast and in the assay with KM12 colon was greater than 100 µM throughout.

Consider `Nc1nc(Cl)c(N)c(NCC2(CO)CC(Cc3ccccc3)C2)n1` (stereo not drawn), for which the TGI is greater than 100 µM in the assay with RXF 393 renal; greater than 100 µM in the assay on CAKI-1 renal; greater than 94.3 µM in the assay on K-562 leukemia; greater than 69.2 µM in the assay with MCF7 breast; greater than 100 µM in the assay with SK-MEL-2 melanoma; greater than 100 µM in the assay on SNB-19 CNS. Besides, the TGI in the assay with HOP-62 NSCLC is greater than 100 µM; with NCI/ADR-RES ovarian it was greater than 100 µM; in the assay on UO-31 renal, greater than 100 µM; in the assay on HL-60(TB) leukemia it was 17.3 µM; in the assay with SF-539 CNS, greater than 100 µM; in the assay on OVCAR-4 ovarian, greater than 100 µM. Besides, the TGI in the assay on MDA-MB-231 breast and with KM12 colon was greater than 100 µM in each case.

Take `NC(=O)C(c1ccccc1)N1OC2C(=O)N(Cc3ccccc3)C(=O)C2C1c1cccc(Oc2ccc(Cl)cc2)c1` (stereo not drawn): the TGI was 53 µM with RXF 393 renal; 31.9 µM in the assay with CAKI-1 renal; 99.5 µM in the assay with K-562 leukemia; 69.4 µM in the assay on MCF7 breast; 48.8 µM in the assay on SK-MEL-2 melanoma; greater than 100 µM with SNB-19 CNS. The TGI in the assay with HOP-62 NSCLC is greater than 100 µM; with NCI/ADR-RES ovarian, greater than 100 µM; with UO-31 renal it was 7.88 µM; in the assay on HL-60(TB) leukemia, 51.2 µM; in the assay with SF-539 CNS it was 47.2 µM; with OVCAR-4 ovarian, greater than 100 µM. Besides, the TGI in the assay with MDA-MB-231 breast and with KM12 colon was greater than 100 µM throughout.

Source of the values: PubChem BioAssay (NCI).
